What all share (type): cell-based
The target in test [1] is T1, pERK1/2 (Thr202/Tyr204), NCI-1H358 (KRAS G12C) (Homo sapiens, UniProt P01116, G12C).
T1 construct: pERK1/2 HTRF read-out
Briefly: Assay of intracellular pERK1/2 (Thr202/Tyr204) phosphorylation in NCI-H358 cells (KRAS G12C). The following applies: pERK1/2, 2 days, read-out: NCI-H358 (KRAS G12C) IC50. A digest of the protocol:
(§1)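 HTRF detection of Thr202/Tyr204-phosphorylated ERK1/2 (665/615 nm ratio) in lysates from cells treated 2 days with serially 3-fold diluted compound.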

Test [2] deals with T2, pERK1/2 (Thr202/Tyr204), PANC-1 (KRAS G121D) (Homo sapiens, UniProt P01116, G12D).
T2 construct: pERK1/2 HTRF read-out
Briefly: Assay of intracellular pERK1/2 (Thr202/Tyr204) phosphorylation in PANC-1 cells (KRAS G12D). The conditions noted are these: pERK1/2, 2 days, read-out: PANC-1 (KRAS G12D) IC50. In a few lines:
as §1

The target in test [3] is T3, pERK1/2 (Thr202/Tyr204), NCI-1H441 (KRAS G12V) (Homo sapiens, UniProt P01116, G12V).
T3 construct: pERK1/2 HTRF read-out
Briefly: Assay of intracellular pERK1/2 (Thr202/Tyr204) phosphorylation in NCI-H441 cells (KRAS G12V). The conditions noted are these: pERK1/2, 2 days, read-out: NCI-H441 (KRAS G12V) IC50. In a few lines:
as §1

T2 sequence (P01116 1-188 isoform P01116-2 G12D): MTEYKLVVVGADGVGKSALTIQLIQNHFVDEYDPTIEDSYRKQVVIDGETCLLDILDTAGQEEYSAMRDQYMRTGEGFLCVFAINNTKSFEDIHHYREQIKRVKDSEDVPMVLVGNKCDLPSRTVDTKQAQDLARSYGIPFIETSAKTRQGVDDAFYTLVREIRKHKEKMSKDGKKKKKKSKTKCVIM
T1 sequence (P01116 1-188 isoform P01116-2 G12C): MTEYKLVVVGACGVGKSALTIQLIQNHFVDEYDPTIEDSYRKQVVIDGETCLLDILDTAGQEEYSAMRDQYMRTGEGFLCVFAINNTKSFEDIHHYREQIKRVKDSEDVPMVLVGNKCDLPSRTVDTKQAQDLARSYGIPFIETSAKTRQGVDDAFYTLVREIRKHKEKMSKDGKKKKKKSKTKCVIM
T3 sequence (P01116 1-188 isoform P01116-2 G12V): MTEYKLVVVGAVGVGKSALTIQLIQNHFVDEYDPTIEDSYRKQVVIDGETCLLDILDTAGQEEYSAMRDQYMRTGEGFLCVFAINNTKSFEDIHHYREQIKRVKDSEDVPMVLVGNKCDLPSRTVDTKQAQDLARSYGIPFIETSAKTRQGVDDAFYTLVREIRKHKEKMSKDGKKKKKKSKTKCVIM

In the case of `CC(c1cccnc1N)N1CCOc2nc(-c3cc(O)cc(Cl)c3C3CC3)c(F)c3nc(OC[C@@]45CCCN4C[C@H](F)C5)nc1c23` (stereo partly drawn) [Compound 4], the figures for the IC50 in test [1], in test [2] and in test [3] were 1 nM, 10 nM and 2 nM, respectively.
The like results for `Cc1cc2[nH]ncc2c(-c2nc3c4c(nc(OCC5(CN(C)C)CC5)nc4c2F)N(C(C)c2cccnc2N)CCO3)c1C` (stereo not drawn) [Compound 5] were, in that order, 710 nM, greater than 1000 nM and greater than 1000 nM.
The like results for `CC(c1cccnc1N)N1CCOc2nc(-c3cc(O)cc4ccc(F)c(F)c34)c(F)c3nc(OC[C@@H]4CCCN4C)nc1c23` (stereo partly drawn) [Compound 6] were, in that order, 4 nM, 136 nM and 17 nM.
The like results for `CC(c1cccnc1N)N1CCOc2nc(-c3cc(O)cc4ccc(F)c(F)c34)c(F)c3nc(OCC4(CN(C)C)CC4)nc1c23` (stereo not drawn) [Compound 7] were, in that order, 8 nM, 238 nM and 33 nM.
With `CC(c1cccnc1N)N1CCOc2nc(-c3cc(O)cc4ccc(F)c(F)c34)c(F)c3nc(OC[C@@H]4CCN4CC(F)F)nc1c23` (stereo partly drawn) [Compound 8], the values for the IC50 in test [1], in test [2] and in test [3] were 1 nM, 113 nM and 2 nM, respectively.
For the molecule `CC(c1cccnc1N)N1CCOc2nc(-c3cc(O)cc4ccc(F)c(F)c34)c(F)c3nc(O)nc1c23` (stereo not drawn) [Compound 9], the half-maximal inhibitory concentration (IC50) in test [1], in test [2] and in test [3] was greater than 1000 nM in each case.
For `CCOc1nc2c3c(nc(-c4cc(O)cc5ccc(F)c(F)c45)c(F)c3n1)OCCN2C(C)c1cccnc1N` (stereo not drawn) [Compound 10], the values for the IC50 in test [1], in test [2] and in test [3] were 152 nM, greater than 1000 nM and 797 nM, respectively.
As to `CC(c1cccnc1N)N1CCOc2nc(-c3cc(O)cc4ccc(F)c(F)c34)c(F)c3nc(OC[C@@]45CCCN4C/C(=C\F)C5)nc1c23` (stereo partly drawn) [Compound 11], the IC50 in test [1] amounted to 1 nM; in test [2] it was 4 nM; in test [3], 1 nM.
For the molecule `CC(c1cccnc1N)N1CCOc2nc(-c3cc(O)cc4ccc(F)c(F)c34)c(F)c3nc(OC[C@H]4COCCN4)nc1c23` (stereo partly drawn) [Compound 12], the figures for the IC50 in test [1], in test [2] and in test [3] were 54 nM, greater than 1000 nM and 192 nM, respectively.
As to `CC(c1cccnc1N)N1CCOc2nc(-c3cc(O)cc4ccc(F)c(F)c34)c(F)c3nc(OC[C@@H]4COCCN4)nc1c23` (stereo partly drawn) [Compound 13], the IC50 in test [1] is 137 nM; in test [2], greater than 1000 nM; in test [3], 247 nM.
The like results for `Cc1cc2[nH]ncc2c(-c2nc3c4c(nc(OC[C@@H]5CCN5CC(F)F)nc4c2F)N(C(C)c2cccnc2N)CCO3)c1C` (stereo partly drawn) [Compound 14] were, in that order, 19 nM, greater than 1000 nM and 36 nM.
The matching figures for `CC(c1cccnc1N)N1CCOc2nc(-c3c(C(F)(F)F)ccc4[nH]ncc34)c(F)c3nc(OC[C@@]45CCCN4C[C@H](F)C5)nc1c23` (stereo partly drawn) [Compound 15]: 2 nM, 175 nM and 17 nM.
The like results for `CC(c1cccnc1N)N1CCOc2nc(-c3cc(O)cc(Cl)c3C3CC3)c(F)c3nc(OC[C@@H]4CCN4CC(F)F)nc1c23` (stereo partly drawn) [Compound 16] were, in that order, 2 nM, 151 nM and 5 nM.
For `CC(c1cccnc1N)N1CCOc2nc(-c3cccc4sc(N)nc34)c(F)c3nc(OC[C@@H]4CCN4CC(F)F)nc1c23` (stereo partly drawn) [Compound 17], the IC50 in test [1] was 29 nM; in test [2], greater than 1000 nM; in test [3] it was 108 nM.
The like results for `CC(c1cccnc1N)N1CCOc2nc(-c3cc(N)ccc3C(F)(F)F)c(F)c3nc(OC[C@@]45CCCN4C[C@H](F)C5)nc1c23` (stereo partly drawn) [Compound 18] were, in that order, 1 nM, 54 nM and 3 nM.
The like results for `CC(c1cccnc1N)N1CCOc2nc(-c3ccc(F)c4sc(N)nc34)c(F)c3nc(OC[C@@H]4CCN4CC(F)F)nc1c23` (stereo partly drawn) [Compound 19] were, in that order, 15 nM, greater than 1000 nM and 66 nM.
The like results for `CC(c1cccnc1N)N1CCOc2nc(-c3cc(O)cc4ccc(F)c(F)c34)c(F)c3ncnc1c23` (stereo not drawn) [Compound 22] were, in that order, 38 nM, 393 nM and 105 nM.
On to `CC(c1cccnc1N)N1CCOc2nc(-c3c(C(F)(F)F)ccc4[nH]ncc34)c(F)c3nc(OC[C@@H]4CCN4CC(F)F)nc1c23` (stereo partly drawn) [Compound 25], for which the IC50 was found to be 7 nM in test [1], 593 nM in test [2] and 14 nM in test [3].
The like results for `CC(c1cccnc1N)N1CCOc2nc(-c3nc(N)cc4ccccc34)c(F)c3nc(OC[C@@H]4CCCN4C)nc1c23` (stereo partly drawn) [Compound 28, 1-(10-(1-(2-aminopyridin-3-yl)ethyl)-4-fluoro-2-(((S)-1-methylpyrrolidin-2-yl)methoxy)-9,10-dihydro-8H-7-oxa-1,3,6,10-tetraazacyclohepta[de]naphthalen-5-yl)isoquinolin-3-amine] were, in that order, 448 nM, greater than 1000 nM and greater than 1000 nM.
The like results for `CSc1nc2c3c(nc(-c4cc(O)cc5ccc(F)c(F)c45)c(F)c3n1)OCCN2C(C)c1cccnc1N` (stereo not drawn) [Compound 33] were, in that order, 193 nM, greater than 1000 nM and 121 nM.
The matching figures for `CC(c1cccnc1N)N1CCOc2nc(-c3cc(N)ccc3C(F)(F)F)c(F)c3nc(OC[C@@H]4CCCN4C)nc1c23` (stereo partly drawn) [Compound 36]: 6 nM, 286 nM and 25 nM.
`CC(c1cccnc1N)N1CCOc2nc(-c3cc(N)ccc3C(F)(F)F)c(F)c3nc(OC[C@@H]4CC(F)(F)CN4C)nc1c23` (stereo partly drawn) [Compound 37]: the figures for the 50% inhibitory concentration (IC50) in test [1], in test [2] and in test [3] were 11 nM, 851 nM and 26 nM, respectively.
As to `CC(c1cccnc1N)N1CCOc2nc(-c3c(C(F)(F)F)ccc4[nH]ncc34)c(F)c3nc(OC[C@@H]4CC(F)(F)CN4C)nc1c23` (stereo partly drawn) [Compound 40], the IC50 in test [1] is 18 nM; in test [2] it was 934 nM; in test [3], 31 nM.
As for `CC(c1cccnc1N)N1CCOc2nc(-c3cc(O)cc(F)c3C3CC3)c(F)c3nc(OC[C@@H]4CC(F)(F)CN4C)nc1c23` (stereo partly drawn) [Compound 45], the results for the IC50 in test [1], in test [2] and in test [3] were 38 nM, greater than 1000 nM and 53 nM, respectively.
The matching figures for `CC(c1cccnc1N)N1CCOc2nc(-c3cc(O)cc4ccc(F)c(F)c34)c(F)c3nc(OC[C@@H]4CC(F)(F)CN4C)nc1c23` (stereo partly drawn) [Compound 46]: 4 nM, 287 nM and 5 nM.
Turning to `COc1ccc(C(F)(F)F)cc1-c1nc2c3c(nc(OC[C@@]45CCCN4C[C@H](F)C5)nc3c1F)N(C(C)c1cccnc1N)CCO2` (stereo partly drawn) [Compound 47], the half-maximal inhibitory concentration (IC50) in test [1] is greater than 1000 nM; in test [2] it was 347 nM; in test [3] it was greater than 1000 nM.
Consider `Cc1cc(N)cc(-c2nc3c4c(nc(OC[C@@]56CCCN5C[C@H](F)C6)nc4c2F)N(C(C)c2cccnc2N)CCO3)c1C(F)(F)F` (stereo partly drawn) [Compound 59], for which the IC50 in test [1] was found to be 0.2 nM; in test [2] it was 2 nM; in test [3], 0.7 nM.
Consider `C#Cc1ccc2[nH]ncc2c1-c1nc2c3c(nc(OC[C@@]45CCCN4C[C@H](F)C5)nc3c1F)N(C(C)c1cccnc1N)CCO2` (stereo partly drawn) [Compound 60], for which the IC50 in test [1] was 518 nM; in test [2], greater than 1000 nM; in test [3] it was 806 nM.
Consider `CC(c1cccnc1N)N1CCOc2nc(-c3cc(N)cc(Cl)c3C(F)(F)F)c(F)c3nc(OC[C@@]45CCCN4C[C@H](F)C5)nc1c23` (stereo partly drawn) [Compound 63], for which the IC50 stood at 0.4 nM in test [1], 2 nM in test [2] and 0.5 nM in test [3].
`CC(c1cccnc1N)N1CCOc2nc(-c3cc(N)cc(Cl)c3C(F)(F)F)c(F)c3nc(OC[C@@H]4CCCN4C)nc1c23` (stereo partly drawn) [Compound 64]: the IC50 is 0.6 nM in test [1], 23 nM in test [2] and 2 nM in test [3].
The matching figures for `Cc1cc(N)cc(-c2nc3c4c(nc(OC[C@@H]5CCCN5C)nc4c2F)N(C(C)c2cccnc2N)CCO3)c1C(F)(F)F` (stereo partly drawn) [Compound 65]: 1 nM, 26 nM and 2 nM.
The like results for `CC(c1cccnc1N)N1CCOc2nc(-c3cc(N)cc(Cl)c3C3CC3)c(F)c3nc(OC[C@@]45CCCN4C[C@H](F)C5)nc1c23` (stereo partly drawn) [Compound 66] were, in that order, 0.2 nM, 3 nM and 0.4 nM.
As to `CC(c1cccnc1N)N1CCOc2nc(-c3cc(N)cc(Cl)c3C3CC3)c(F)c3nc(OC[C@@H]4CCCN4C)nc1c23` (stereo partly drawn) [Compound 67], the 50% inhibitory concentration (IC50) turned out to be 5 nM in test [1], 81 nM in test [2] and 8 nM in test [3].
The like results for `CC(c1cccnc1N)N1CCOc2nc(-c3cc(N)cc(Cl)c3C3CC3)c(F)c3nc(OCC4(C#N)CC4)nc1c23` (stereo not drawn) [Compound 68] were, in that order, 264 nM, greater than 1000 nM and 506 nM.
Take `Cc1cc(N)cc(-c2nc3c4c(nc(OCC5(CN(C)C)CC5)nc4c2F)N(C(C)c2cccnc2N)CCO3)c1C(F)(F)F` (stereo not drawn) [Compound 69]: the 50% inhibitory concentration (IC50) in test [1] is 3 nM; in test [2], 95 nM; in test [3] it was 10 nM.
In the case of `Cc1cc(N)cc(-c2nc3c4c(nc(OC[C@@H]5CC(F)(F)CN5C)nc4c2F)N(C(C)c2cccnc2N)CCO3)c1C(F)(F)F` (stereo partly drawn) [Compound 70], the values for the IC50 in test [1], in test [2] and in test [3] were 2 nM, greater than 100 nM and 2 nM, respectively.

By IC50 is commonly meant the concentration that gives 50% inhibition.
